# Measurements from paper PMC11164132 (British journal of pharmacology, 2021).
# Molecular target: hTRPV1 (Homo sapiens, UniProt Q8NER1)
# Type: cell-based
# Chain of hTRPV1 (Q8NER1 whole entry): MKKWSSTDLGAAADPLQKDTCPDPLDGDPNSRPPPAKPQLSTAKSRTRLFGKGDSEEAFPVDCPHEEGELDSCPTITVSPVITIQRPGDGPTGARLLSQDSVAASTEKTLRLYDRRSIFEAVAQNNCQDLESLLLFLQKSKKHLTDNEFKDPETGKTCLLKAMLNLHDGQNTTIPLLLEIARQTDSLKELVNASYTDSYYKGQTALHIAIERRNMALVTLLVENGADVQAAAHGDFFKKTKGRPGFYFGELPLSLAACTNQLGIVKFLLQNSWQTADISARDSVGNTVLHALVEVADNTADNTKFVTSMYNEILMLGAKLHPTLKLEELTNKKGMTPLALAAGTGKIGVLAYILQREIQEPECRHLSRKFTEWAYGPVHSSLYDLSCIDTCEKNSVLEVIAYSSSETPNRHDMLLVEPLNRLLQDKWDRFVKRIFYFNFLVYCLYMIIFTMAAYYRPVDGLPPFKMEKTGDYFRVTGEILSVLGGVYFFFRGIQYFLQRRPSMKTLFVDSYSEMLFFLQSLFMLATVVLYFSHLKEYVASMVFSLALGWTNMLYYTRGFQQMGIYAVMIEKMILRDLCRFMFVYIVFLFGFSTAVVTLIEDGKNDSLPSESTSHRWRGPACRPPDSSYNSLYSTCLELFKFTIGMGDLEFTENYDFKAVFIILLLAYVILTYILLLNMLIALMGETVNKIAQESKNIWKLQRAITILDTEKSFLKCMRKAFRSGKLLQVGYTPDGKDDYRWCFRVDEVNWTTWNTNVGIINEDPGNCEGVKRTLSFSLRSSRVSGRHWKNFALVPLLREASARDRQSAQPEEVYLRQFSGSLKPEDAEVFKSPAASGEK
smiles,measurement,value
"CCCCCCCCCCCC(=O)NCCO [compound 3, lauric acid monoethanolamide]",EC50,3.2 µM
